Results taken from patent US11096985B2, “Antimicrobial peptides, their variants and uses” (priority 2015, dated 2021).
Where a SMILES comes first, the peptide text is derived from it. [ ]: non-standard residue; d: D form.

What was measured:
S. aureus RN4220 = format: cell-based, Staphylococcus aureus; details: antibiotic sensitive strain S. aureus RN4220
Experimental: (§1) Minimum inhibition concentrations (MICs) were determined against Escherichia coli (ATCC 25922), Staphylococcus aureus (ATCC 25923), Klebsiella pneumoniae (ATCC 10031) and Pseudomonas aeruginosa (ATCC 27853). Also clinical strains of E. coli, K. pneumoniae, E. cloacae, P. aeruginosa, Serratia marcescens, Proteus mirabilis, S. pneumoniae, Acinetobacter baumannii, A. johnsonii and S. aureus were used for MICs assays. Additionally, clinical strains of yeast including Candida albicans, C. glabrata, C. parapsilosis and C. quillermondiae were used. The susceptibility of these microorganisms to Chain peptides were determined using micro broth dilution assay. Colonies of the respective microorganism from Muller Hinton (MH) agar plates incubated overnight were suspended in MH broth media and final concentration of microorganism was adjusted to 5.0×10^5 cfu/ml. An aliquot of 10 μl of each Chain peptide, or gentamicin, tetracycline as reference antibiotics were added in differing concentrations along with 90 μl of bacterial suspension to 96 well polypropylene plates and incubated at 37° C. for 20 to 24 hours. Concentrations of Chain peptides and reference antibiotics ranged from 0.125 to 128 μg/ml and the MICs were recorded as the lowest concentration with no visual growth of bacteria. Similarly, antifungal MICs were tested in Potato dextrose broth.
(§2) Peptides Chain 104, Chain 105, Chain 201, Chain 308, Chain 310 were tested against antibiotic-sensitive strains of S. aureus RN4220 and methicillin resistant strains of S. aureus COL (MRSA). Chain peptides comprising of either L- or D-form amino acids were tested against these bacteria, and the D-form peptides were found have better activity compared to L-form (Table 6). Synergistic activity of chain peptides along with Ertapenem (4 μg/ml) was tested to know whether it will influence the activity against MRSA strains. […] Chain 310 has the best antibacterial activity against the MRSA strains with a MIC of 0.06 & 0.03 μg/ml along with Ertapenem (4 μg/ml) for both forms of L and D-peptides (Table 6).

S. aureus COL (MRSA) = assay: Synergistic activity with Ertapenem (4 μg/ml) against MRSA, MIC; format: cell-based, Staphylococcus aureus; details: S. aureus COL, together with 4 μg/ml Ertapenem (synergistic activity)
Experimental: as §1, §2

[1] = test system: clinical strains of Candida albicans; assay: MIC, clinical yeast strains, Candida albicans; format: cell-based; parameters: unit: μg/ml
Experimental: as §1
(§3) Clinical strains of yeasts including Candida albicans, C. glabrata, C. parapsilosis and C. quillermondiae were also tested with the 12 Chain peptides. The minimum inhibitory concentration (MICs) varied between these peptides and are presented in Tables 4a, 4b, 4c and 5a, 5b, 5c. Peptides Chain 105, 201 and 308 are broad spectrum antimicrobials with MICs between 0.5-32 μg/ml against all the bacteria and yeasts tested, except Serratia marcescens and Proteus mirabilis, against which the MICs were between 64-128 μg/ml. Peptide Chain 306 has narrow spectrum activity against E.coli at 1 μg/ml and for the rest of the bacterial strains at >32 μg/ml (FIG. 10).

[2] = test system: clinical strains of C. glabrata; assay: MIC, clinical yeast strains, C. glabrata; format: cell-based, Candida glabrata; parameters: unit: μg/ml
Experimental: as §1, §3

[3] = test system: clinical strains of C. parapsilosis; assay: MIC, clinical yeast strains, C. parapsilosis; format: cell-based, Candida parapsilosis; parameters: unit: μg/ml
Experimental: as §1, §3

[4] = test system: clinical strains of C. quillermondiae; assay: MIC, clinical yeast strains, C. quillermondiae; format: cell-based; details: C. quillermondiae clinical yeast strain 1
Experimental: as §1, §3

[5] = Candida albicans clinical yeast strain 1
[6] = Candida albicans clinical yeast strain 2
[7] = Candida albicans clinical yeast strain 3
[8] = Candida albicans clinical yeast strain 4
[9] = Candida albicans clinical yeast strain 5
[10] = C. glabrata clinical yeast strain 1
[11] = C. glabrata clinical yeast strain 2
[12] = C. glabrata clinical yeast strain 3
[13] = C. glabrata clinical yeast strain 4
[14] = C. parapsilosis clinical yeast strain 1
[15] = C. parapsilosis clinical yeast strain 2
[16] = C. parapsilosis clinical yeast strain 3
[17] = C. parapsilosis clinical yeast strain 4

CC[C@@H](C)[C@@H](NC(=O)[C@@H](Cc1c[nH]c2ccccc12)NC(=O)[C@H](N)CCCCN)C(=O)N[C@@H](C(=O)N[C@H](Cc1c[nH]c2ccccc12)C(=O)N[C@H](CCCNC(=N)N)C(=O)N[C@H](Cc1c[nH]c2ccccc12)C(=O)N[C@H](CCCNC(=N)N)C(=O)N[C@H](Cc1ccccc1)C(=O)N[C@H](CCCCN)C(=O)N[C@H](CCCNC(=N)N)C(=O)O)C(C)C [201 D] (H-[dK][dW][dI][dV][dW][dR][dW][dR][dF][dK][dR]-OH)
Minimum inhibitory concentration (MIC), S. aureus RN4220 (S. aureus RN4220): 2 µg/mL | Minimum inhibitory concentration (MIC), S. aureus COL + 4 μg/ml Ertapenem (S. aureus COL (MRSA)): 1 µg/mL

CC[C@H](C)[C@H](NC(=O)[C@H](CCSC)NC(=O)[C@H](C)NC(=O)[C@H](CCCNC(=N)N)NC(=O)[C@H](Cc1c[nH]c2ccccc12)NC(=O)[C@H](CCCCN)NC(=O)[C@@H](N)CCCNC(=N)N)C(=O)N[C@@H](CCCNC(=N)N)C(=O)N[C@@H](CC(C)C)C(=O)N[C@@H](Cc1c[nH]cn1)C(=O)N[C@@H](C)C(=O)N[C@@H](CCCCN)C(=O)N[C@@H](Cc1c[nH]c2ccccc12)C(=O)N[C@@H](CC(C)C)C(=O)N[C@@H](CCCNC(=N)N)C(=O)N[C@@H](CCCCN)C(=O)O [Compound 105] (H-RKWRAMIRLHAKWLRK-OH)
Minimum inhibitory concentration (MIC), S. aureus RN4220 (S. aureus RN4220): >64 µg/mL | Minimum inhibitory concentration (MIC), S. aureus COL + 4 μg/ml Ertapenem (S. aureus COL (MRSA)): 0.5 µg/mL

CC(C)C[C@@H](NC(=O)[C@@H](CCCCN)NC(=O)[C@@H](Cc1c[nH]c2ccccc12)NC(=O)[C@@H](CCCCN)NC(=O)[C@@H](C)NC(=O)[C@@H](Cc1c[nH]cn1)NC(=O)[C@@H](CC(C)C)NC(=O)[C@@H](CCCNC(=N)N)NC(=O)[C@@H](Cc1c[nH]c2ccccc12)NC(=O)[C@H](N)Cc1c[nH]c2ccccc12)C(=O)N[C@H](Cc1c[nH]c2ccccc12)C(=O)O [Chain109D] (H-[dW][dW][dR][dL][dH][dA][dK][dW][dK][dL][dW]-OH)
Minimum inhibitory concentration [1, 5]: 128 | Minimum inhibitory concentration [1, 6]: 128 | Minimum inhibitory concentration [1, 7]: 128 | Minimum inhibitory concentration [1, 8]: 128 | Minimum inhibitory concentration [1, 9]: 128 | Minimum inhibitory concentration [2, 10]: 128 | Minimum inhibitory concentration [2, 11]: 128 | Minimum inhibitory concentration [2, 12]: 16 | Minimum inhibitory concentration [2, 13]: 64 | Minimum inhibitory concentration [3, 14]: 128 | Minimum inhibitory concentration [3, 15]: 128 | Minimum inhibitory concentration [3, 16]: 128 | Minimum inhibitory concentration [3, 17]: 8 | Minimum inhibitory concentration [4]: 128

CC[C@@H](C)[C@@H](NC(=O)[C@@H](CCSC)NC(=O)[C@@H](C)NC(=O)[C@@H](CCCNC(=N)N)NC(=O)[C@@H](Cc1c[nH]c2ccccc12)NC(=O)[C@@H](CCCCN)NC(=O)[C@H](N)CCCNC(=N)N)C(=O)N[C@H](CCCNC(=N)N)C(=O)N[C@H](CC(C)C)C(=O)N[C@H](Cc1c[nH]cn1)C(=O)N[C@H](C)C(=O)N[C@H](CCCCN)C(=O)N[C@H](CCCNC(=N)N)C(=O)N[C@H](CC(C)C)C(=O)N[C@H](CCCNC(=N)N)C(=O)N[C@H](CCCCN)C(=O)O [104 D] (H-[dR][dK][dW][dR][dA][dM][dI][dR][dL][dH][dA][dK][dR][dL][dR][dK]-OH)
Minimum inhibitory concentration (MIC), S. aureus RN4220 (S. aureus RN4220): 64 µg/mL | Minimum inhibitory concentration (MIC), S. aureus COL + 4 μg/ml Ertapenem (S. aureus COL (MRSA)): 4 µg/mL

CC(C)C[C@@H](NC(=O)[C@H](N)CCCNC(=N)N)C(=O)N[C@H](CCCCN)C(=O)N[C@H](Cc1c[nH]c2ccccc12)C(=O)N[C@H](Cc1ccccc1)C(=O)N[C@H](CC(C)C)C(=O)N[C@H](CC(C)C)C(=O)N[C@H](Cc1ccccc1)C(=O)N[C@H](CCCNC(=N)N)C(=O)N[C@H](CCCCN)C(=O)N[C@H](CCCNC(=N)N)C(=O)O [308 D] (H-[dR][dL][dK][dW][dF][dL][dL][dF][dR][dK][dR]-OH)
Minimum inhibitory concentration (MIC), S. aureus RN4220 (S. aureus RN4220): 4 µg/mL | Minimum inhibitory concentration (MIC), S. aureus COL + 4 μg/ml Ertapenem (S. aureus COL (MRSA)): 1 µg/mL

CC(C)C[C@@H](NC(=O)[C@@H](CCCCN)NC(=O)[C@@H](CCCCN)NC(=O)[C@@H](Cc1ccccc1)NC(=O)[C@@H](CC(C)C)NC(=O)[C@@H](Cc1c[nH]c2ccccc12)NC(=O)[C@@H](CCCNC(=N)N)NC(=O)[C@@H](Cc1c[nH]c2ccccc12)NC(=O)[C@@H](CCCCN)NC(=O)[C@@H](CCCNC(=N)N)NC(=O)[C@H](N)CCCCN)C(=O)O [310 D] (H-[dK][dR][dK][dW][dR][dW][dL][dF][dK][dK][dL]-OH)
Minimum inhibitory concentration (MIC), S. aureus RN4220 (S. aureus RN4220): >64 µg/mL | Minimum inhibitory concentration (MIC), S. aureus COL + 4 μg/ml Ertapenem (S. aureus COL (MRSA)): <0.03 µg/mL

CC[C@H](C)[C@H](NC(=O)[C@H](CCSC)NC(=O)[C@H](C)NC(=O)[C@H](CCCNC(=N)N)NC(=O)[C@H](Cc1c[nH]c2ccccc12)NC(=O)[C@H](CCCCN)NC(=O)[C@@H](N)CCCNC(=N)N)C(=O)N[C@@H](CCCNC(=N)N)C(=O)N[C@@H](CC(C)C)C(=O)N[C@@H](Cc1c[nH]cn1)C(=O)N[C@@H](C)C(=O)N[C@@H](CCCCN)C(=O)N[C@@H](CCCNC(=N)N)C(=O)N[C@@H](CC(C)C)C(=O)N[C@@H](CCCNC(=N)N)C(=O)N[C@@H](CCCCN)C(=O)O [Compound 104] (H-RKWRAMIRLHAKRLRK-OH)
Minimum inhibitory concentration (MIC), S. aureus RN4220 (S. aureus RN4220): >64 µg/mL | Minimum inhibitory concentration (MIC), S. aureus COL + 4 μg/ml Ertapenem (S. aureus COL (MRSA)): 0.25 µg/mL

C[C@@H]1[C@H](O)[C@@H](C)/C=C/C=C/C=C/C=C/C=C/C=C/C=C/[C@H](O[C@@H]2O[C@H](C)[C@@H](O)[C@H](N)[C@@H]2O)C[C@@H]2O[C@](O)(C[C@@H](O)C[C@@H](O)[C@H](O)CC[C@@H](O)C[C@@H](O)CC(=O)O[C@H]1C)C[C@H](O)[C@H]2C(=O)O [Amphotericin B, reference compound]
Minimum inhibitory concentration [1, 5]: 2 | Minimum inhibitory concentration [1, 6]: 0.5 | Minimum inhibitory concentration [1, 7]: 2 | Minimum inhibitory concentration [1, 8]: 2 | Minimum inhibitory concentration [1, 9]: 2 | Minimum inhibitory concentration [2, 10]: 4 | Minimum inhibitory concentration [2, 11]: 4 | Minimum inhibitory concentration [2, 12]: 2 | Minimum inhibitory concentration [2, 13]: 4 | Minimum inhibitory concentration [3, 14]: 2 | Minimum inhibitory concentration [3, 15]: 2 | Minimum inhibitory concentration [3, 16]: 2 | Minimum inhibitory concentration [3, 17]: 2 | Minimum inhibitory concentration [4]: 2

CC(C)C[C@H](NC(=O)[C@H](CCCCN)NC(=O)[C@H](CCCCN)NC(=O)[C@H](Cc1ccccc1)NC(=O)[C@H](CC(C)C)NC(=O)[C@H](Cc1c[nH]c2ccccc12)NC(=O)[C@H](CCCNC(=N)N)NC(=O)[C@H](Cc1c[nH]c2ccccc12)NC(=O)[C@H](CCCCN)NC(=O)[C@H](CCCNC(=N)N)NC(=O)[C@@H](N)CCCCN)C(=O)O [Compound 310] (H-KRKWRWLFKKL-OH)
Minimum inhibitory concentration (MIC), S. aureus RN4220 (S. aureus RN4220): >64 µg/mL | Minimum inhibitory concentration (MIC), S. aureus COL + 4 μg/ml Ertapenem (S. aureus COL (MRSA)): 0.06 µg/mL

CC[C@H](C)[C@H](NC(=O)[C@H](Cc1c[nH]c2ccccc12)NC(=O)[C@@H](N)CCCCN)C(=O)N[C@H](C(=O)N[C@@H](Cc1c[nH]c2ccccc12)C(=O)N[C@@H](CCCNC(=N)N)C(=O)N[C@@H](Cc1c[nH]c2ccccc12)C(=O)N[C@@H](CCCNC(=N)N)C(=O)N[C@@H](Cc1ccccc1)C(=O)N[C@@H](CCCCN)C(=O)N[C@@H](CCCNC(=N)N)C(=O)O)C(C)C [Compound 201] (H-KWIVWRWRFKR-OH)
Minimum inhibitory concentration (MIC), S. aureus RN4220 (S. aureus RN4220): 64 µg/mL | Minimum inhibitory concentration (MIC), S. aureus COL + 4 μg/ml Ertapenem (S. aureus COL (MRSA)): 0.5 µg/mL

CC[C@@H](C)[C@@H](NC(=O)[C@@H](CCSC)NC(=O)[C@@H](C)NC(=O)[C@@H](CCCNC(=N)N)NC(=O)[C@@H](Cc1c[nH]c2ccccc12)NC(=O)[C@@H](CCCCN)NC(=O)[C@H](N)CCCNC(=N)N)C(=O)N[C@H](CCCNC(=N)N)C(=O)N[C@H](CC(C)C)C(=O)N[C@H](Cc1c[nH]cn1)C(=O)N[C@H](C)C(=O)N[C@H](CCCCN)C(=O)N[C@H](Cc1c[nH]c2ccccc12)C(=O)N[C@H](CC(C)C)C(=O)N[C@H](CCCNC(=N)N)C(=O)N[C@H](CCCCN)C(=O)O [105 D] (H-[dR][dK][dW][dR][dA][dM][dI][dR][dL][dH][dA][dK][dW][dL][dR][dK]-OH)
Minimum inhibitory concentration (MIC), S. aureus RN4220 (S. aureus RN4220): 16 µg/mL | Minimum inhibitory concentration (MIC), S. aureus COL + 4 μg/ml Ertapenem (S. aureus COL (MRSA)): 2 µg/mL
